# Measurements published in ChEMBL document CHEMBL1201862, “PubChem BioAssay data set” (2004).
# Active and inactive are the calls of the source.
# Legend:
# [1] = inhibitors of intracellular T. cruzi replication, confirmation, NIH3T3 host cells, beta-gal luminescence (AID 2044); format: functional, cell-based;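 further: intracellular parasites grown in NIH/3T3 mouse fibroblasts as host cells; luminescent beta-galactosidase reporter signal from transgenic T. cruzi replicating inside host cells; inhibitors lower the luminescence signal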
# Streptococcus = experiment: Group A Streptococcus viability loss, dose response, counter-screen for streptokinase expression inhibitor project, luminescence, BacTiterGlo (AID 1915); format: functional, organism-based;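 further: potency for reduction of bacterial viability or growth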
# [2] = molecular target: T1, Probable nicotinate-nucleotide adenylyltransferase (Staphylococcus aureus (strain N315), UniProt P65502); format: functional, Staphylococcus aureus subsp. aureus N315;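 on IC50 Mean: confirmatory dose-response retesting of NadD inhibitor hits first found in an ultra-high-throughput screen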
# [3] = molecular target: T1, Probable nicotinate-nucleotide adenylyltransferase; format: functional, Staphylococcus aureus subsp. aureus N315; conditions: read-out: IC50_Mean
# Nonstructural protein 1 = Nonstructural protein 1 (Influenza A virus, UniProt Q194T2); format: functional, Influenza A virus (A/California/07/2009(H1N1))
# Streptokinase A = molecular target: T2, Streptokinase A (Streptococcus pyogenes serotype M1, UniProt P10520); experiment: S. pyogenes streptokinase expression inhibitors, potency, dose response, plasminogen activation absorbance, OD405 (AID 1914); format: functional, Streptococcus pyogenes M1 GAS;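 further: secreted streptokinase activity via plasminogen activation per viability signal from cell pellet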
# T2 sequence (P10520 whole entry): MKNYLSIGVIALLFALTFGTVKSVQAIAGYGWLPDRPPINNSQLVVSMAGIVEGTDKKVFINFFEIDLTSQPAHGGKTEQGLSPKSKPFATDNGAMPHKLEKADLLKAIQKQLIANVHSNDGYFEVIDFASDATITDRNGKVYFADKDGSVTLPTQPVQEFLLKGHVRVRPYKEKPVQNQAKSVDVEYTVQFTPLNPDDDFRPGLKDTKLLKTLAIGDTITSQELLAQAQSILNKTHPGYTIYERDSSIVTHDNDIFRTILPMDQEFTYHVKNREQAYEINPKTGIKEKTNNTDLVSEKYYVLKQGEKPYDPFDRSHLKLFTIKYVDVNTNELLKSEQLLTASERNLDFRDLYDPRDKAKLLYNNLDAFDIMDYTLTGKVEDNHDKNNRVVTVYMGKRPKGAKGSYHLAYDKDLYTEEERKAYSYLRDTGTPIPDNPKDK
# [4] = cytotoxicity toward NIH3T3 fibroblasts, dose response, counter-screen, cell-based, ATP luminescence, mouse fibroblasts (AID 2010); format: functional;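 further: cells exposed to compound for about 90 hours before reading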
# [5] = tested on: Streptococcus sp. 'group A'; experiment: growth inhibition of control SK(-) GAS strain, dose response, counter-screen for streptokinase expression inhibitor project, luminescence, kanamycin, BacTiterGlo, confirmation (AID 1900); format: functional, organism-based
# cells [6] = format: functional, cell-based
# INS1 = experiment: beta cell apoptosis inhibitors, cytokine rescue, dose response, luminescence, retest (AID 449756); format: functional, cell-based; conditions: Rattus norvegicus;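 further: cell death triggered by IL-1 beta plus TNF-alpha plus IFN-gamma mixture; protective hits raise ATP signal compared with cytokine alone wells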
# cells [7] = format: functional, cell-based; remark: listed apart in the source
# [8] = A Cell Based Secondary Assay To Explore Cytotoxicity of Compounds that Sensitize Mycobacterium Tuberculosis to Beta-Lactam Antibiotics.; format: functional
# Estrogen receptor beta [9] = molecular target: T3, Estrogen receptor beta (Homo sapiens, UniProt Q92731);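 further: recombinant ER-beta bound to coactivator SRC1 peptide in presence of estradiol agonist; inhibitors block coactivator peptide binding and lower the FRET signal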
# [10] = molecular target: T4, Carboxy-terminal domain RNA polymerase II polypeptide A small phosphatase 1 (Homo sapiens, UniProt Q9GZU7); experiment: inhibitors of CTDSP1, concentration-response testing, biochemical assay, absorbance-based, actives from ultra-high-throughput screening (AID 540297); format: functional
# T4 sequence (Q9GZU7 whole entry): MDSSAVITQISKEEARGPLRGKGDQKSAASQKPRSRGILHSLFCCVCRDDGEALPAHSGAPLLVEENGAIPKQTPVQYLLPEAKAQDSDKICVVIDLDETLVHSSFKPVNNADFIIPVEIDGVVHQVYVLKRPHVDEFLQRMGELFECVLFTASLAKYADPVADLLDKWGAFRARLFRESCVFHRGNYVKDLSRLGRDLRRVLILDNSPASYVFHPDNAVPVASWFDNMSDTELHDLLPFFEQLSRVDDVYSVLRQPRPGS
# Estrogen receptor = molecular target: T5, Estrogen receptor (Homo sapiens, UniProt P03372);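 further: potency for inhibiting coactivator peptide recruitment to the receptor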
# T5 sequence (P03372 whole entry): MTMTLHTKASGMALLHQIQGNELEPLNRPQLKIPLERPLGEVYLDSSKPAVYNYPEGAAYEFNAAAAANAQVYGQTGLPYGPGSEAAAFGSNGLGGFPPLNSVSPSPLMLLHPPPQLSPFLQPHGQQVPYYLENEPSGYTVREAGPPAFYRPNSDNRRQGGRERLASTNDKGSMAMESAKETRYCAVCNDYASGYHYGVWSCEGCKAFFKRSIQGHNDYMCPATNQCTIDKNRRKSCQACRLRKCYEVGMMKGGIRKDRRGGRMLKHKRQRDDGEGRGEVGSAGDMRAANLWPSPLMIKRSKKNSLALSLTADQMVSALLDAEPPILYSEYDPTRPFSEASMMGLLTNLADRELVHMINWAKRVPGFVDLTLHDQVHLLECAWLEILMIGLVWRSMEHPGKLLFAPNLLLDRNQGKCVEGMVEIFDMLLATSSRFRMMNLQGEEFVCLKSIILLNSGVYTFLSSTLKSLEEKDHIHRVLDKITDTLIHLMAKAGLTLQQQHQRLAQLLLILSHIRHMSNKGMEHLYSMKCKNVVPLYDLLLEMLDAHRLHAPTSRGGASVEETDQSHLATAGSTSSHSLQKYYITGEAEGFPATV
# Estrogen receptor beta [11] = molecular target: T3, Estrogen receptor beta; experiment: ERβ–SRC-3 coactivator interaction inhibitors, confirmation, orthogonal assay, biochemical, ELISA, streptavidin-HRP readout (AID 1060)
# cells [12] = experiment: cells
# [13] = molecular target: T6, Microphthalmia-associated transcription factor (Homo sapiens, UniProt O75030); experiment: TRPM1 promoter luciferase signal decrease, dose response, MITF inhibitor project, cell-based, SK-MEL-5, cherry-picked, set 3 (AID 493073); format: functional
# T6 sequence (O75030 whole entry): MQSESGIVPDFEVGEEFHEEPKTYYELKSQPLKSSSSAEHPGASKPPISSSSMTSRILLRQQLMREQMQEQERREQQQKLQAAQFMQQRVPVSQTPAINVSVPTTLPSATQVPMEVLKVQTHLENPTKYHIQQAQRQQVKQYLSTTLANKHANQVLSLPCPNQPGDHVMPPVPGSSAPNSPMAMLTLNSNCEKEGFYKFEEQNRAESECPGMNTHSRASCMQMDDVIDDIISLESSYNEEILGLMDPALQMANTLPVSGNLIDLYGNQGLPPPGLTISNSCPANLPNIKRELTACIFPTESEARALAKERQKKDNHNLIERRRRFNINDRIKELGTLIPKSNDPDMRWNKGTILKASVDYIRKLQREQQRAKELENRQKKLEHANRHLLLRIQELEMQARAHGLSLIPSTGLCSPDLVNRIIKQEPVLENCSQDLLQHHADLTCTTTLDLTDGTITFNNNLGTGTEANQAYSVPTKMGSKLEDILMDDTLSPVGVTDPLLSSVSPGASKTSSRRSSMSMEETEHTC
# [14] = HepG2 cell cytotoxicity, dose response, cytotoxicity control, ATP luminescence, cherry-pick, activator set 2 (AID 1053143); format: functional, cell-based
# [15] = HEp-2 cell cytotoxicity, dose response, cytotoxicity control for RSV inhibitor project, HTS (AID 2410); format: functional; conditions: human respiratory syncytial virus
# Fatty acid synthase [16] = molecular target: T7, Fatty acid synthase (Homo sapiens, UniProt P49327); experiment: FAS thioesterase domain inhibitors, dose response, biochemical, kinetic fluorescence intensity (AID 624326); format: functional;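 further: rate of fluorescence rise from hydrolysis of a fluorogenic O-methyl fluorescein ester substrate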
# Fatty acid synthase [17] = molecular target: T7, Fatty acid synthase; experiment: FAS thioesterase domain inhibitors, dose response, biochemical, endpoint fluorescence intensity, uHTS hits (AID 624327); format: functional;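 further: fluorescence from hydrolysis of an O-methyl fluorescein acyl ester substrate by the enzyme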
# Caspase-6 = molecular target: T8, Caspase-6 (Homo sapiens, UniProt P55212); experiment: human caspase-6 inhibitors, dose response, biochemical, VEID-R110 fluorescence, cherry-pick (AID 720632)
# T8 sequence (P55212 whole entry): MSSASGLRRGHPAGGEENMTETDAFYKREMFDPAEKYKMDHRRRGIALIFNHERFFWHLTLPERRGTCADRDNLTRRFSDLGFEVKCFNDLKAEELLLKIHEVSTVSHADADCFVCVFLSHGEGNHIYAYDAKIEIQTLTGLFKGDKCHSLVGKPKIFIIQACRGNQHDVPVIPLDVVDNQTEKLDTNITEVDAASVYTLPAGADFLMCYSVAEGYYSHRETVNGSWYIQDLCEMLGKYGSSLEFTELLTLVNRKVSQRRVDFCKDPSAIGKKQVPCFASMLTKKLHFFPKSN
# [18] = molecular target: 72 kDa type IV collagenase (Homo sapiens, UniProt P08253); experiment: Dose Response validation of uHTS RPN11 inhibitor hits using a MMP-2 Fluorescence assay.; format: functional
# Prothrombin = Prothrombin (Bos taurus, UniProt P00735); experiment: thrombin inhibition, dose response, biochemical, fluorescence polarization, uHTS hits (AID 602369); format: functional
# [19] = molecular target: 26S proteasome non-ATPase regulatory subunit 14 (Homo sapiens, UniProt O00487); experiment: inhibition of proteasome subunit RPN11 – biochemical, fluorescence polarization, uHTS hits, confirmation (AID 602368); format: functional
# [20] = A cytotoxicity screen of small molecule inhibitors of the PhoP region in Salmonella typhi identified in the primary screen. [Related pubchem assays: 1850, 1864, 1985 ]; format: functional
# [21] = MC4R antagonists, dose response, counter-screen for LGR2 antagonist project, cell-based, plate reader, cherry pick (AID 743444); format: functional;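 further: transfected HEK 293 cells stimulated with alpha-MSH peptide; potency of inhibitors of the alpha-MSH evoked signal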
# HEK293 = experiment: inhibitors of LMP1-driven NF-kB reporter, dose response, cell-based, HEK293, luciferase, cherry-pick (AID 588343); format: functional; conditions: Homo sapiens
# [22] = cytotoxicity toward DRD oncogenic fibroblasts, dose response, cell-based, non-viral oncogenic, luminescence (AID 1934); format: functional; conditions: Homo sapiens
# BJ [23] = experiment: cytotoxicity toward BJ-TERT fibroblasts, dose response, cell-based, RAS-independent, luminescence (AID 1933); format: functional; conditions: Homo sapiens
# BJ [24] = experiment: cells; format: functional, cell-based; conditions: Homo sapiens
# [25] = Luminescence Cell-Based Dose Response HTS to Identify Inhibitors of 5'UTR Stem-Loop Driven Prion Protein mRNA Translation in H4 Neuroglioblastoma Cells. [Related pubchem assays: 1827 (Project Summary), 1813 (Primary HTS)]; format: functional
# BJ [26] = experiment: cytotoxicity toward BJ-TERT-LT-ST fibroblasts, dose response, cell-based, RAS-independent, luminescence (AID 1935); format: functional; conditions: Homo sapiens;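 further: BJ fibroblasts immortalized with TERT plus LT and ST oncogenes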
# [27] = inhibitors of firefly luciferase expression or activity, dose response, H4 neuroglioma cells, luminescence (AID 1990); format: functional, cell-based
# T7 sequence (P49327 whole entry, the tested form may be a part): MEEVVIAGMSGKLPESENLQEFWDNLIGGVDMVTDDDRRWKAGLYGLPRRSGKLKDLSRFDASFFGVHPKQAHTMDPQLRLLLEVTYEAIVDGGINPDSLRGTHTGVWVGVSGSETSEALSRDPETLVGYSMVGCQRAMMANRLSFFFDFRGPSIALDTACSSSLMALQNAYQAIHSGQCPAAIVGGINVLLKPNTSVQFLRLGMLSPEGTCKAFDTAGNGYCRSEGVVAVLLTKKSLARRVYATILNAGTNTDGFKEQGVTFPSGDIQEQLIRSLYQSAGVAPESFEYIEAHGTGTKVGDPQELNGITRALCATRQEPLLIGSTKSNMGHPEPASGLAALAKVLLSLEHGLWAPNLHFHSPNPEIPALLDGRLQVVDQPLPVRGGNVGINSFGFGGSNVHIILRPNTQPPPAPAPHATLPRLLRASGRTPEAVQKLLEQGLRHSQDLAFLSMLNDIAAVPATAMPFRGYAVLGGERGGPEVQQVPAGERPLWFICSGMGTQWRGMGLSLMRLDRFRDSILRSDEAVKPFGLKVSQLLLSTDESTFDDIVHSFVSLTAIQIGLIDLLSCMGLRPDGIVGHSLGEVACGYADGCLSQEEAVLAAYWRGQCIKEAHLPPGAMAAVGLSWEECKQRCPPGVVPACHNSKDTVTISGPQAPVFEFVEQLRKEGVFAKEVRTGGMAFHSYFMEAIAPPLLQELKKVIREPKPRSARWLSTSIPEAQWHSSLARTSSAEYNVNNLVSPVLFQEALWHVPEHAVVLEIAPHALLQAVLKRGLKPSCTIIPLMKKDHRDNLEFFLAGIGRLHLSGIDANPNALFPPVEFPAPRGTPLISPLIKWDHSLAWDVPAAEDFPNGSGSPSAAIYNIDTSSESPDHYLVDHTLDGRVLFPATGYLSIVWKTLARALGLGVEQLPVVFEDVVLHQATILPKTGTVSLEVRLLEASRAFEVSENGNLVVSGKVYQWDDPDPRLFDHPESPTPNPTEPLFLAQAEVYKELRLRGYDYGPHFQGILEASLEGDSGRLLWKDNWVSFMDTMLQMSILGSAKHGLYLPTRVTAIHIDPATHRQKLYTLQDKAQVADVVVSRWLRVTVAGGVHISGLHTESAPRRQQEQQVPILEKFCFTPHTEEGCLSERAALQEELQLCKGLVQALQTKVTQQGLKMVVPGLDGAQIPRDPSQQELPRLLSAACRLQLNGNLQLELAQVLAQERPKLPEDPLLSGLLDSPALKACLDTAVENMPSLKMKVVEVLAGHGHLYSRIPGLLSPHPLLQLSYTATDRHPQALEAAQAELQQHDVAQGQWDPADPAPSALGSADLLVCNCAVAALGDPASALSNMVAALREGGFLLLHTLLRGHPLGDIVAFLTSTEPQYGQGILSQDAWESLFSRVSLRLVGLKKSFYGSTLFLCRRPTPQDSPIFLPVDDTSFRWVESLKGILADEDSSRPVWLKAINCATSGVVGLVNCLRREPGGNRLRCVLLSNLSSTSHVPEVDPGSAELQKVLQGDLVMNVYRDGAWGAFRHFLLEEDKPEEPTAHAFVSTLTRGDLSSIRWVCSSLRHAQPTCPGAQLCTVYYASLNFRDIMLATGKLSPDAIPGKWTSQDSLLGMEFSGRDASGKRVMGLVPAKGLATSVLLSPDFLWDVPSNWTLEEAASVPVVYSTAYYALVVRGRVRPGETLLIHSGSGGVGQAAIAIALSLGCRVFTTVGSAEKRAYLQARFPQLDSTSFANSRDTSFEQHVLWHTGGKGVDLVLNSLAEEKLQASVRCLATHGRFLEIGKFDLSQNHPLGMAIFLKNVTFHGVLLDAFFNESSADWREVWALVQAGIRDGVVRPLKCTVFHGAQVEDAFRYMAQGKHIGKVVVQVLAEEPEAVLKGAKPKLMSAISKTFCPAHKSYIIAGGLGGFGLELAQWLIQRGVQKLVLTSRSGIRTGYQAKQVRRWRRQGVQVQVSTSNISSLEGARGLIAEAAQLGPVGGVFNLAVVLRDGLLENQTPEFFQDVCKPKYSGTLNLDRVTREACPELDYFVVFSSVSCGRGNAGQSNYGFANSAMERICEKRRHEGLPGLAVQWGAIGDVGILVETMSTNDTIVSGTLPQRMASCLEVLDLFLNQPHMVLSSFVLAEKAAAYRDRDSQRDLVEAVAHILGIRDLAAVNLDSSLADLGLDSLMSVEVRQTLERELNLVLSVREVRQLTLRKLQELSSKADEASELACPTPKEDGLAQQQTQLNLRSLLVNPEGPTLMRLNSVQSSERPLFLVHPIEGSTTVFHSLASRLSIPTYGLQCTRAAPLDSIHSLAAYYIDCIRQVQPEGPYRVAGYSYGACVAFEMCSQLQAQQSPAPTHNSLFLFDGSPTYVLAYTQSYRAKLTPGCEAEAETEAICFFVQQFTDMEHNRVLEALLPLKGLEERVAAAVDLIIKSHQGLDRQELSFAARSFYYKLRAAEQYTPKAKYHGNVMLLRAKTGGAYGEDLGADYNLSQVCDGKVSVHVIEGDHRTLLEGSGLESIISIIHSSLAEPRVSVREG
# T1 sequence (P65502 whole entry): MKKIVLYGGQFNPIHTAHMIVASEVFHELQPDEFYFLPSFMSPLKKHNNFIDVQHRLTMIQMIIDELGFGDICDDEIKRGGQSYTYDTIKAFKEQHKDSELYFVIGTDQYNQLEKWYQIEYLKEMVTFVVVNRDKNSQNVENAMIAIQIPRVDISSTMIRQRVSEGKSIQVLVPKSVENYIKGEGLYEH
# Nonstructural protein 1, sequence (Q194T2 whole entry): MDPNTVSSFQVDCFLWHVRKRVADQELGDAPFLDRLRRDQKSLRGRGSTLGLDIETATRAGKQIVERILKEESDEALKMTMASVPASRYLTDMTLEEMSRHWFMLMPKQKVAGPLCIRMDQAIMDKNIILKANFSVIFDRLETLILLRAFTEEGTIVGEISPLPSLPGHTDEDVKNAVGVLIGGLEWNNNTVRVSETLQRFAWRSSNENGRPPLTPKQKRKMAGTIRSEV
# T3 sequence (Q92731 whole entry, the tested form may be a part): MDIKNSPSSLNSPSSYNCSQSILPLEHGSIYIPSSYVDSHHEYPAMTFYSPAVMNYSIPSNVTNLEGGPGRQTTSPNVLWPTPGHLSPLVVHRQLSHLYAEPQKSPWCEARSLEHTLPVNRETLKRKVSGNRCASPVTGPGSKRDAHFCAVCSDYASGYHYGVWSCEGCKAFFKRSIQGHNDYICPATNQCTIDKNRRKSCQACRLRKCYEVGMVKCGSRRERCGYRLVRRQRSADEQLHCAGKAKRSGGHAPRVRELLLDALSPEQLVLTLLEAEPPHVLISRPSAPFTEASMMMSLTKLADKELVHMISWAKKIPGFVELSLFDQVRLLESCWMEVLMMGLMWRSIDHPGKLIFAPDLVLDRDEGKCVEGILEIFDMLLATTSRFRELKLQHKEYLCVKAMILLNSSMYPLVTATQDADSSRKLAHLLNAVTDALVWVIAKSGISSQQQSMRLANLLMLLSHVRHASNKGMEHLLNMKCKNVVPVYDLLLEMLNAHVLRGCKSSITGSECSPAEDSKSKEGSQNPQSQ
# 26S proteasome non-ATPase regulatory subunit 14, sequence (O00487 whole entry): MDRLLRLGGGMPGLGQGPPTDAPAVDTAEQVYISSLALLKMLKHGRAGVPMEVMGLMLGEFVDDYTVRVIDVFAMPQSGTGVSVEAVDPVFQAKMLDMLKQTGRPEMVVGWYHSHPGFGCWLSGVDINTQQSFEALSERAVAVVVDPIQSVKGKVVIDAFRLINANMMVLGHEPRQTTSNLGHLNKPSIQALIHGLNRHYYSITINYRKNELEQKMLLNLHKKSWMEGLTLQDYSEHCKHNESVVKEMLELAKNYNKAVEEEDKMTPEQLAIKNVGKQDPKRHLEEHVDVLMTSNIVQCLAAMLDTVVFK
# 72 kDa type IV collagenase, sequence (P08253 whole entry): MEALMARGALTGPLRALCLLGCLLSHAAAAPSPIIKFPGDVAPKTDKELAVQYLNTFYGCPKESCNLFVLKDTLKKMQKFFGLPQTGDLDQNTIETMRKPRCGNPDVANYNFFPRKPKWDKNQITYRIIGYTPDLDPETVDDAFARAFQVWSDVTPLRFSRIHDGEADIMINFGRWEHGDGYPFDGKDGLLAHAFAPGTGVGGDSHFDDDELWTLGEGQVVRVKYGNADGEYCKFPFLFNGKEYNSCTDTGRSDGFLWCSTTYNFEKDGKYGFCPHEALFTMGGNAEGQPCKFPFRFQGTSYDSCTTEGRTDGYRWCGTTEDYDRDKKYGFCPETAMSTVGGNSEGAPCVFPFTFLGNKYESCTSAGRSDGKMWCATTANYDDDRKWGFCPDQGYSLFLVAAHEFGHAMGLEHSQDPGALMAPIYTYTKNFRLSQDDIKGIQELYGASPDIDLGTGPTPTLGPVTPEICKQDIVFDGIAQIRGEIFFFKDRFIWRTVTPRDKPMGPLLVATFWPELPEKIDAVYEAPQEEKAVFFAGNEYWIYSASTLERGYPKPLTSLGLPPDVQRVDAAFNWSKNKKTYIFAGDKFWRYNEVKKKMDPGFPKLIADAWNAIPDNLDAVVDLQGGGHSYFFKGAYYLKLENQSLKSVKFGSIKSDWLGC
smiles,measurement,setting,value
Cc1cccc2sc(NNC(=O)c3ccc(S(=O)(=O)N4CCc5ccccc5C4)cc3)nc12,EC50,[1],0.733 µM (active)
same,EC50,Streptococcus,33.6 µM (active)
same,IC50,[2],13.8 µM (active)
same,IC50,[3],56.7 µM (active)
same,IC50,Nonstructural protein 1,> 100 µM (active)
same,EC50,Streptokinase A,> 150 µM (not active)
same,EC50,[4],2.62 µM (active)
same,EC50,[5],2.4 µM (active)
same,EC50,cells [6],> 350 µM (not active)
same,AC50,INS1,1.8 µM (active)
same,EC50,cells [7],12 µM (active)
CNC(=Nc1cc(Cl)ccc1Cl)SC1CC(=O)N(c2ccc(C(=O)OC)cc2)C1=O (stereo unspecified),EC50,Streptococcus,12.5 µM (active)
same,CC50,[8],> 40 µM (active)
same,EC50,[5],10.3 µM (active)
O=C(c1cc2ncc(Br)cn2n1)N1CCN(C(=O)c2ccco2)CC1,IC50,Estrogen receptor beta [9],2.73 µM (active)
same,IC50,[10],16.5 µM (active)
same,IC50,Estrogen receptor,17.9 µM (active)
same,IC50,Estrogen receptor beta [11],0.349 µM (not active)
Clc1ccc(-c2c[n+](Cc3cccc(Cl)c3)c3n2CCC3)cc1,EC50,[1],< 0.1 µM (active)
same,EC50,cells [12],0.009 µM (active)
same,EC50,[4],> 60 µM (not active)
same,AC50,[13],8.77 µM (active)
N#Cc1ccc(C23CC4(C2)[C@H](CN(Cc2cccnc2)[C@@H]4c2ccccc2)C3c2ccccc2)cc1 (stereo partly specified),CC50,[8],> 40 µM (active)
Brc1c(CSc2nc3ccccc3o2)nc2ncccn12,AC50,[14],> 52 µM (inactive)
Cc1ccc2c(C)nc(N=C(N)NS(=O)(=O)c3ccc([N+](=O)[O-])cc3)nc2c1,CC50,[15],45.4 µM (active)
same,EC50,[1],< 0.1 µM (active)
same,IC50,Fatty acid synthase [16],8.96 µM (active)
same,EC50,cells [12],0.273 µM (active)
same,EC50,[4],> 60 µM (not active)
same,IC50,Fatty acid synthase [17],10.9 µM (active)
Cc1cccc(NC(=O)CNC(=O)CCc2nc3sc4c(c3c(=O)[nH]2)CCCC4)c1C,AC50,Caspase-6,7.7 µM (active)
same,IC50,[10],2.66 µM (active)
same,IC50,[18],> 100 µM (inactive)
same,IC50,Prothrombin,43.9 µM (active)
same,IC50,[19],7.12 µM (active)
CC1(C)CC(=O)C2=C(C1)N(c1ccc(F)cc1)C(=O)CC2c1ccsc1 (stereo unspecified),EC50,[20],> 50 µM (active)
CC(=O)Nc1nc(-c2cccc3ccccc23)cs1,EC50,[1],< 0.1 µM (active)
same,EC50,cells [12],0.264 µM (active)
same,EC50,[4],> 60 µM (not active)
Cc1ccccc1Oc1ccc(Oc2ccccc2C)nn1,EC50,[20],> 50 µM (active)
Cc1ccc2nc(-c3ccc(NC(=O)c4cccnc4)cc3)oc2c1,AC50,[21],29.2 µM (active)
same,AC50,INS1,4.63 µM (active)
O=C(Nc1ccc(N2CCOCC2)c(Cl)c1)c1ccccc1F,EC50,[20],> 50 µM (active)
CCOC(=O)c1ccc2nc(NC(=O)c3ccco3)sc2c1,AC50,[14],26 µM (active)
C(=N\Nc1nc2ccccc2[nH]1)/c1cccc2cccnc12,AC50,HEK293,2.96 µM (active)
same,EC50,[22],2.33 µM (active)
same,EC50,BJ [23],1.53 µM (active)
same,IC50,Nonstructural protein 1,13.4 µM (active)
same,EC50,BJ [24],3.01 µM (active)
same,EC50,[25],> 120 µM (not active)
same,EC50,BJ [26],3.36 µM (active)
same,EC50,cells [6],97.6 µM (active)
same,EC50,[27],5.09 µM (active)
same,AC50,[14],26 µM (active)
same,EC50,cells [7],66.2 µM (active)
Cn1c(/C=N/c2nc3ccccc3[nH]2)nc2ccccc21,CC50,[8],37.4 µM (active)
